Test results: patent publication US20260007684A1, “AMIDE DERIVATIVES FOR INHIBITING NLRP3 AND USES THEREOF” (Ventus Therapeutics U.S., Inc., priority 2023, published 2026)

Biological target: human NLRP3 (Homo sapiens (Human), UniProt Q96P20)
Assay: Scintillation Proximity (SPA) NLRP3 Assay: displacement of 3H-MCC950
Type: binding
Conditions: SPA IC50, displacement of 3H-MCC950

Chain of human NLRP3 (Q96P20 whole entry): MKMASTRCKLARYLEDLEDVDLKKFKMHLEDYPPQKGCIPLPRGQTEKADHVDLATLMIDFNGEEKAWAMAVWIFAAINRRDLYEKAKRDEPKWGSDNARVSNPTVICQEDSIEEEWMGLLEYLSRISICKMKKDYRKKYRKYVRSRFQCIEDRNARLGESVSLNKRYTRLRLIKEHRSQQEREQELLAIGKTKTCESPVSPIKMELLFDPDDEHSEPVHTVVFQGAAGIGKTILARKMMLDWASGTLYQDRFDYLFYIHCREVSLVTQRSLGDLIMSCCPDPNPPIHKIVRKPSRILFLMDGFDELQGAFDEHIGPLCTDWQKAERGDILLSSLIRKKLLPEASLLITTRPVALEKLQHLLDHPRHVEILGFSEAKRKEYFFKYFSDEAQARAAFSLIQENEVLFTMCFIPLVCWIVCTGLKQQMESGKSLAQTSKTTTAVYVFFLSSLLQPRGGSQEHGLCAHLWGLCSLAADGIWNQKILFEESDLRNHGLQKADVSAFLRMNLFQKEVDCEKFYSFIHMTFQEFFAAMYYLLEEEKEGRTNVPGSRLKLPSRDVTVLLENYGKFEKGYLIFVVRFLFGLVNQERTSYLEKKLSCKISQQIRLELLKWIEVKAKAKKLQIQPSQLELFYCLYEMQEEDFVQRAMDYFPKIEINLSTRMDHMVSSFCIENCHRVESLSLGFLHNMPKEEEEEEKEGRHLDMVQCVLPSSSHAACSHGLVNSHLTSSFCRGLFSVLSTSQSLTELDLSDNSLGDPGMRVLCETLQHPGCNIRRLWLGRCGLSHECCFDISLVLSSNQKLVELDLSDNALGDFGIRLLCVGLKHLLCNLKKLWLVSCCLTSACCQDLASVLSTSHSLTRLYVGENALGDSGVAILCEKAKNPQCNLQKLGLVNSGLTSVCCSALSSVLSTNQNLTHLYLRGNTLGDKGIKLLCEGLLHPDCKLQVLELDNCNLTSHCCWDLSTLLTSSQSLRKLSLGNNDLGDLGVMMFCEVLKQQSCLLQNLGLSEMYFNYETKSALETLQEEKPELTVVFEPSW

Row | SMILES | IC50 [µM]
1 | O=C(N[C@H]1CCC[C@H]2CC[C@@H]1N2c1nnn[nH]1)C1(c2ccc(C(F)(F)F)cc2O)CC1 [88D*, N-((1S,2S,6S)-9-(1H-tetrazol-5-yl)-9-azabicyclo[4.2.1]nonan-2-yl)-1-(2-hydroxy-4-(trifluoromethyl)phenyl)cyclopropane-1-carboxamide] | 1 to 10
2 | O=C(N[C@H]1CCC[C@@H]2CC[C@H]1N2c1nnn[nH]1)C1(c2ccc(C3CC3)cc2O)CC1 [93B*, N-((1R,2S,6R)-9-(1H-tetrazol-5-yl)-9-azabicyclo[4.2.1]nonan-2-yl)-1-(4-cyclopropyl-2-hydroxyphenyl)cyclopropane-1-carboxamide] | 1 to 10

Same assay, conditions: displacement of 3H-MCC950; read-out: SPA IC50

Row | SMILES | IC50 [µM]
3 | C[C@H]1CCN(c2nnn[nH]2)C[C@@H](NC(=O)C2(c3ccc(Cl)cc3)CC2)C1 (single isomer, unassigned) [12D*, 1-(4-chlorophenyl)-N-(5-methyl-1-(1H-tetrazol-5-yl)azepan-3-yl)cyclopropane-1-carboxamide] | 10 to 50
4 | C[C@@H]1C[C@H](NC(=O)C2(c3ccc(OC(F)F)cc3)CC2)[C@@H]2CC[C@H]1N2c1nnn[nH]1 (single isomer, unassigned) [35H*] | > 100
5 | C[C@H]1CCN(c2nnn[nH]2)C[C@H](NC(=O)C2(c3cc(F)c(C(F)(F)F)cc3F)CC2)C1 (single isomer, unassigned) [7C*, 1-(2,5-difluoro-4-(trifluoromethyl)phenyl)-N-(5-methyl-1-(1H-tetrazol-5-yl)azepan-3-yl)cyclopropane-1-carboxamide] | 50 to 100
6 | C[C@H]1CCN(c2nnn[nH]2)C[C@H](NC(=O)C2(c3ccc(SC(F)(F)F)cc3)CC2)C1 (single isomer, unassigned) [69C*] | > 100
7 | C[C@H]1C[C@@H](NC(=O)C2(c3ccc(C4CC4(F)F)cc3)CC2)[C@@H]2CC[C@H]1N2c1nnn[nH]1 (single isomer, unassigned) [37C*] | > 100
8 | C[C@@]1(NC(=O)C2(c3ccc(Cl)cc3)CC2)CCCN(c2nnn[nH]2)C1 (single isomer, unassigned) [11A*, 1-(4-chlorophenyl)-N-(3-methyl-1-(1H-tetrazol-5-yl)piperidin-3-yl)cyclopropane-1-carboxamide] | > 100
9 | Cc1ccc(C2(C(=O)N[C@@H]3C[C@@H](C)CCN(c4nnn[nH]4)C3)CC2)c(O)c1F (single isomer, unassigned) [22C*, 1-(3-fluoro-2-hydroxy-4-methylphenyl)-N-(5-methyl-1-(1H-tetrazol-5-yl)azepan-3-yl)cyclopropane-1-carboxamide] | 10 to 50
10 | C[C@@H]1C[C@H](NC(=O)C2(c3ccc(C4CC4)c(F)c3O)CC2)[C@H]2CC[C@@H]1N2c1nnn[nH]1 [83B*, 1-(4-cyclopropy1-3-fluoro-2-hydroxyphenyl)-N-((1R,2S,4R,5S)-4-methyl-8-(1H-tetrazol-5-yl)-8-azabicyclo[3.2.1]octan-2-yl)cyclopropane-1-carboxamide] | 10 to 50
11 | C[C@H]1CCN(c2nnn[nH]2)C[C@@H](NC(=O)C2(c3ccc(SC(F)(F)F)cc3)CC2)C1 (single isomer, unassigned) [69D*] | 10 to 50
12 | O=C(N[C@H]1C[C@@H](C(F)(F)F)[C@@H]2CC[C@H]1N2c1nnn[nH]1)C1(c2ccc(Cl)cc2)CC1 (single isomer, unassigned) [103B*] | > 100
13 | C[C@H]1CCN(c2nnn[nH]2)C[C@@H](NC(=O)C2(c3ccc(OC(F)F)cc3)CC2)C1 (single isomer, unassigned) [58D*] | 1 to 10
14 | C[C@@H]1C[C@H](NC(=O)C2(c3ccc(Cl)cc3)CC2)[C@H]2CC[C@@H]1N2c1nnn[nH]1 [80B*, 1-(4-chlorophenyl)-N-((1R,2S,4R,5S)-4-methyl-8-(1H-tetrazol-5-yl)-8-azabicyclo[3.2.1]octan-2-yl)cyclopropane-1-carboxamide] | 10 to 50
15 | C[C@H]1C[C@@H](NC(=O)C2(c3ccc(C(F)(F)F)nc3O)CC2)CN(c2nnn[nH]2)C1 [Compound 24A, 1-(2-hydroxy-6-(trifluoromethyl)pyridin-3-yl)-N-((3R,5S)-5-methyl-1-(1H-tetrazol-5-yl)piperidin-3-yl)cyclopropane-1-carboxamide] | 1 to 10
16 | C[C@H]1CCN(c2nnn[nH]2)C[C@@H](NC(=O)C2(c3ccc(Br)cc3)CC2)C1 (single isomer, unassigned) [59D*] | 1 to 10
17 | C[C@H]1CCN(c2nnn[nH]2)C[C@H](NC(=O)C2(c3ccc(OC(F)(F)F)cc3F)CC2)C1 (single isomer, unassigned) [64C*] | 50 to 100
18 | C[C@H]1CCN(c2nnn[nH]2)C[C@H](NC(=O)C2(c3ccc(C(F)(F)F)cc3O)CC2)C1 (single isomer, unassigned) [63C*] | 10 to 50
19 | C[C@H]1C[C@@H](NC(=O)C2(c3ccc(C(F)(F)F)cc3)CC2)[C@@H]2CC[C@H]1N2c1nnn[nH]1 [79C*, N-((1S,2R,4S,5R)-4-methy1-8-(1H-tetrazol-5-yl)-8-azabicyclo[3.2.1]octan-2-yl)-1-(4-(trifluoromethyl)phenyl)cyclopropane-1-carboxamide] | 10 to 50
20 | C[C@H]1CCN(c2nnn[nH]2)C[C@H](NC(=O)C2(c3ccc(Cl)cc3F)CC2)C1 (single isomer, unassigned) [56C*] | 50 to 100
21 | Cc1cc(C2(C(=O)N[C@@H]3C[C@H](C)CCN(c4nnn[nH]4)C3)CC2)ccc1C(F)(F)F (single isomer, unassigned) [6A*, N-(5-methyl-1-(1H-tetrazol-5-yl)azepan-3-yl)-1-(3-methyl-4-(trifluoromethyl)phenyl)cyclopropane-1-carboxamide] | 1 to 10
22 | C[C@@H]1CC[C@@H](NC(=O)C2(c3ccc(C4CC4)cc3O)CC2)CN(c2nnn[nH]2)C1 (single isomer, unassigned) [91C*] | 50 to 100
23 | Cc1c(Cl)ccc(C2(C(=O)N[C@H]3C[C@@H](C)CCN(c4nnn[nH]4)C3)CC2)c1O (single isomer, unassigned) [21D*, 1-(4-chloro-2-hydroxy-3-methylphenyl)-N-(5-methyl-1-(1H-tetrazol-5-yl)azepan-3-yl)cyclopropane-1-carboxamide] | 10 to 50
24 | C[C@H]1C[C@@H](NC(=O)C2(c3ccc(OC(F)F)cc3O)CC2)[C@@H]2CC[C@H]1N2c1nnn[nH]1 [43C*, N-((1S,2R,4S,5R)-4-methy1-8-(1H-tetrazol-5-yl)-8-azabicyclo[3.2.1]octan-2-yl)-1-(4-(difluoromethoxy)-2-hydroxyphenyl)cyclopropane-1-carboxamide] | > 100
25 | C[C@@H]1CCN(c2nnn[nH]2)C[C@@H](NC(=O)C2(c3ccc(C(F)F)cc3)CC2)C1 (single isomer, unassigned) [5B*, 1-(4-(difluoromethyl)phenyl)-N-(5-methyl-1-(1H-tetrazol-5-yl)azepan-3-yl)cyclopropane-1-carboxamide] | 10 to 50
26 | O=C(N[C@@H]1C[C@H](C(F)(F)F)[C@H]2CC[C@@H]1N2c1nnn[nH]1)C1(c2ccc(Cl)cc2)CC1 (single isomer, unassigned) [103C*] | > 100
27 | C[C@H]1CCN(c2nnn[nH]2)C[C@H](NC(=O)C2(c3ccc(OC(F)(F)F)cc3)CC2)C1 (single isomer, unassigned) [57C*] | > 100
28 | Cc1ccc(C2(C(=O)N[C@H]3C[C@@H](C)CCN(c4nnn[nH]4)C3)CC2)c(O)c1 (single isomer, unassigned) [67D*] | 1 to 10
29 | Cc1ccc(C2(C(=O)N[C@H]3C[C@H](C)CCN(c4nnn[nH]4)C3)CC2)cc1 (single isomer, unassigned) [71B*] | 50 to 100
